Measured values reported in US20240174611A1 (Rappta Therapeutics Oy, priority 2021, published 2024).

Tested on: LNCaP cells
Assay: LNCaP cell viability assay (MTS)
Format: cell-based
Conditions: Homo sapiens, LNCaP, 48 h, LNCaP cell line, 48 hours treatment
Protocol: LNCaP cell line was used for the cell viability assay. LNCaP cells were plated in 96-well plates at a density of 5000 cells per well. After 24 hours of plating, the cells were treated with increasing doses of compound 1-100 ranging from 1 μM to 80 μM. Relative cell numbers were analyzed after 48 hours using 3-(4,5-dimethylthiazol-2-yl)-5-(3-carboxymethoxyphenyl)-2-(4-sulfophenyl)-2H-tetrazolium (MTS) assay (Promega) according to the manufacturer's instructions.
The cell viability data was analyzed with GraphPad Prism software. The values were log transformed and analyzed with non-linear regression (curve-fit) using log(inhibitor) vs. response—variable slope (four parameters) and constraining the bottom to equal zero. Unless otherwise indicated, the GI50 values provided in Table 35 correspond to the LNCaP cell viability assays.

Row | Structure (SMILES) | GI50
1 | O=S(=O)(NC1(c2ncc(Cl)cc2F)CCNCC1)c1ccc(OC(F)(F)F)cc1 [Compound 95, N-(4-(5-chloro-3-fluoropyridin-2-yl)piperidin-4-yl)-4-(trifluoromethoxy)benzenesulfonamide] | 45.8 µM
2 | COC(=O)[C@@H]1Cc2ccccc2[C@@H]1NS(=O)(=O)c1ccc(OC(F)(F)F)cc1 (racemic) [Compound 4] | 40.4 µM
3 | CC(C)CC(=O)N1CCC(NS(=O)(=O)c2ccc(OC(F)(F)F)cc2)(c2ccc(Cl)cc2)C1 (stereo not shown) [Compound 81, N-(3-(4-chlorophenyl)-1-(3-methylbutanoyl)pyrrolidin-3-yl)-4-(trifluoromethoxy)benzenesulfonamide] | 45.8 µM
4 | O=S(=O)(N[C@@H]1CNC[C@@H]1c1ccc(Cl)c(Cl)c1)c1ccc(OC(F)(F)F)cc1 (racemic) [Compound 51, rac N-((3R,4R)-4-(3,4-dichlorophenyl)pyrrolidin-3-yl)-4-(trifluoromethoxy)benzenesulfonamide] | 10.4 µM
5 | O=S(=O)(NC1(c2ccc(Cl)cc2)CCN(Cc2ccccc2)C1)c1ccc(Oc2ccc(C(F)(F)F)cc2)cc1 (stereo not shown) [Compound 54, N-(1-benzyl-3-(4-chlorophenyl)pyrrolidin-3-yl)-4-(4-(trifluoromethyl)phenoxy)benzenesulfonamide] | 26.8 µM
6 | CC(C)(C)OC(=O)N1CCCC1C1(NS(=O)(=O)c2ccc(OC(F)(F)F)cc2)CC1 (stereo not shown) [Compound 23] | 26 µM
7 | CN1CCC(NS(=O)(=O)c2ccc(OC(F)(F)F)cc2)(c2ccc(Cl)cc2)C1 (stereo not shown) [Compound 69, N-(3-(4-chlorophenyl)-1-methylpyrrolidin-3-yl)-4-(trifluoromethoxy)benzenesulfonamide] | 19.5 µM
8 | O=S(=O)(NC1(c2ccc(Cl)cc2)CNC1)c1ccc(OC(F)(F)F)cc1 [Compound 47, N-(3-(4-chlorophenyl)azetidin-3-yl)-4-(trifluoromethoxy)benzenesulfonamide] | 31.8 µM
9 | O=S(=O)(NC1(C23CC(C2)C3)CCNCC1)c1ccc(OC(F)(F)F)cc1 [Compound 66, N-(4-(bicyclo[1.1.1]pentan-1-yl)piperidin-4-yl)-4-(trifluoromethoxy)benzenesulfonamide] | 68.6 µM
10 | COC(=O)C12CC3(C)CC(C)(CC(NS(=O)(=O)c4ccc(OC(F)(F)F)cc4)(C3)C1)C2 [Compound 21] | 30 µM
11 | O=S(=O)(NC1CCCc2cc(Cl)ccc21)c1ccc(OC(F)(F)F)cc1 (stereo not shown) [Compound 12, N-(6-chloro-1,2,3,4-tetrahydronaphthalen-1-yl)-4-(trifluoromethoxy)benzene-sulfonamide] | 49 µM
12 | COC(=O)C#CC1(NS(=O)(=O)c2ccc(OC(F)(F)F)cc2)CCCC1 [Compound 19] | 43 µM
13 | CC(C)Oc1ccc(S(=O)(=O)NC2(c3ccc(F)cc3)CCNCC2)cn1 [Compound 77, N-(4-(4-fluorophenyl)piperidin-4-yl)-6-isopropoxypyridine-3-sulfonamide] | 41.7 µM
14 | O=S(=O)(NC1(c2ccccc2)CCNCC1)c1ccc(OC(F)(F)F)nc1 [Compound 60, N-(4-phenylpiperidin-4-yl)-6-(trifluoromethoxy)pyridine-3-sulfonamide] | 49.6 µM
15 | CC(C)(C)OC(=O)N1CCC(NS(=O)(=O)c2ccc(OC(F)(F)F)cc2)(c2ccc(Cl)cc2)C1 (stereo not shown) [Compound 70] | 21.7 µM
16 | O=S(=O)(NC1(c2ccc(F)cc2)CCNC1)c1ccc(OC(F)(F)F)cc1 (stereo not shown) [Compound 74, N-(3-(4-fluorophenyl)pyrrolidin-3-yl)-4-(trifluoromethoxy)benzenesulfonamide] | 47.9 µM
17 | O=S(=O)(NC1(c2ccc(Cl)cc2)CCNCC1)C12CC(C(F)(F)F)(C1)C2 [Compound 98, N-(4-(4-chlorophenyl)piperidin-4-yl)-3-(trifluoromethyl)bicyclo[1.1.1]pentane-1-sulfonamide] | 46.6 µM

Row | Structure (SMILES) | GI50
18 | O=S(=O)(NC1(c2ccccc2)CCN(Cc2ccccc2)C1)c1ccc(OC(F)(F)F)cc1 (stereo not shown) [Compound 35, N-(1-benzyl-3-phenylpyrrolidin-3-yl)-4-(trifluoromethoxy)benzene-sulfonamide] | 38.7 µM
19 | O=S(=O)(NC1(c2ccc(Cl)c(Cl)c2)CCNC1)c1ccc(OC(F)(F)F)cc1 (stereo not shown) [Compound 41, N-(3-(3,4-dichlorophenyl)pyrrolidin-3-yl)-4-(trifluoromethoxy)benzene-sulfonamide] | 10.4 µM
20 | O=S(=O)(NC1CCN(c2cccc(Br)c2)C1)c1ccc(OC(F)(F)F)cc1 (stereo not shown) [Compound 3] | 77.1 µM
21 | COc1cccc(C2(NS(=O)(=O)c3ccc(OC(F)(F)F)cc3)CCCC2)c1 [Compound 15] | 49.2 µM
22 | O=S(=O)(NC1(c2ccc(Cl)cc2)CCNC1)c1ccc(OC(F)(F)F)cc1 (stereo not shown) [Compound 39, N-(3-(4-chlorophenyl)pyrrolidin-3-yl)-4-(trifluoromethoxy)benzene-sulfonamide] | 14 µM
23 | CN1CCC(NS(=O)(=O)c2ccc(OC(F)(F)F)cc2)(c2ccccc2)CC1 [Compound 61, N-(1-methyl-4-phenylpiperidin-4-yl)-4-(trifluoromethoxy)benzenesulfonamide] | 44.1 µM
24 | CN1CC[C@@H](NS(=O)(=O)c2ccc(OC(F)(F)F)cc2)[C@@H]1c1ccc(Cl)cc1 (racemic) [Compound 9] | 51.5 µM
25 | O=S(=O)(NC1(c2ccc(Cl)cc2)CCNCC1)c1ccc(OC(F)(F)F)cc1 [Compound 45, N-(4-(4-chlorophenyl)piperidin-4-yl)-4-(trifluoromethoxy)benzenesulfonamide] | 11 µM
26 | O=S(=O)(NC1(c2ccccc2)CC2CCC(C1)N2)c1ccc(OC(F)(F)F)cc1 (stereo not shown) [Compound 86, N-(3-phenyl-8-azabicyclo[3.2.1]octan-3-yl)-4-(trifluoromethoxy)benzenesulfonamide] | 23.7 µM
27 | CC(=O)Nc1ccc(S(=O)(=O)N2CCC(NS(=O)(=O)c3ccc(OC(F)(F)F)cc3)CC2)cc1 [Compound 1] | 38.1 µM
28 | O=S(=O)(NC1CCN(c2cccc(OC(F)(F)F)c2)C1)c1ccc(OC(F)(F)F)cc1 (stereo not shown) [Compound 6] | 59.3 µM
29 | CCOc1cc(CN2CCC(NS(=O)(=O)c3ccc(OC(F)(F)F)cc3)CC2)ccc1O [Compound 30, N-(1-(3-ethoxy-4-hydroxybenzyl)piperidin-4-yl)-4-(trifluoromethoxy)benzene-sulfonamide] | 30 µM
30 | O=S(=O)(NC1(c2ccc(Cl)cc2)CCN(C2COC2)C1)c1ccc(OC(F)(F)F)cc1 (stereo not shown) [Compound 71, N-(3-(4-chlorophenyl)-1-(oxetan-3-yl)pyrrolidin-3-yl)-4-(trifluoromethoxy)benzenesulfonamide] | 59.1 µM
31 | O=S(=O)(NC1(c2ccc(Cl)c(Cl)c2)CNC1)c1ccc(OC(F)(F)F)cc1 [Compound 48, N-(3-(3,4-dichlorophenyl)azetidin-3-yl)-4-(trifluoromethoxy)benzenesulfonamide] | 18.2 µM
32 | O=C(OCc1ccccc1)N1CCC(NS(=O)(=O)c2ccc(OC(F)(F)F)cc2)(c2ccc(Cl)c(Cl)c2)C1 (stereo not shown) [Compound 40] | 25.5 µM
33 | Cc1noc(C)c1S(=O)(=O)NCC1(NS(=O)(=O)c2ccc(OC(F)(F)F)cc2)CCCCC1 [Compound 33] | 53 µM
34 | O=S(=O)(NC1(c2ccc(Cl)c(Cl)c2)CCN(Cc2ccccc2)C1)c1ccc(Oc2ccc(C(F)(F)F)cc2)cc1 (stereo not shown) [Compound 55, N-(1-benzyl-3-(3,4-dichlorophenyl)pyrrolidin-3-yl)-4-(4-(trifluoromethyl)phenoxy)benzenesulfonamide] | 38 µM
